US8680058B2, “Selectively targeted antimicrobial peptides and the use thereof” (priority 2006, dated 2014)
In brackets after ≈: the same amount, converted by molar mass. Non-standard residues stand in square brackets, D forms with d. Residues, ends and D or L forms follow the SMILES beside them. No end group written: not given here.

Columns and labels:
P. aeruginosa ATCC 15692 [1] = assay: Killing of exogenous P. aeruginosa in pooled CF sputum; type: cell-based, Pseudomonas aeruginosa
Description: 3.2 Activity and stability of G10KHc and G10KHc-D in sputum. Determination of peptide antimicrobial effects or activity in sputum was investigated in a similar manner to previous reports (Sajjan et al., 2001). To assay the activity of G10KHc and G10KHc-D against exogenous P. aeruginosa in sputum, collected sputum samples were diluted 1:10 in 10 mM PBS (PBS) and pooled (referred to as pooled sputum). In 100 μL pooled sputum, ATCC 15692 was added to a final concentration of ˜5×10^6 cfu/mL prior to 25 μM peptide addition.
In samples examining the effect of protease inhibitors on peptide activity, pooled sputum samples were pre-treated for 30 min with 1 mM protease inhibitor, either phenylmethylsulphonylfluoride (PMSF), beta-mercaptoethanol (BME), or ethylenediaminetetraacetic acid (EDTA), (all acquired from Sigma-Aldrich), followed by addition of 25 μM G10KHc and ATCC 15692 (˜5×10^6 cfu/mL).
Bacteria surviving peptide treatment were rescued by dilution (1:50) in growth media at 4 h and kept on ice before appropriate dilution and plating on LB agar supplemented with ampicillin (25 μg/mL). After overnight incubation at 37° C., colonies were counted and the surviving cfu/mL quantitated. 100 cfu/mL was considered as the countable limit for all plating procedures. […]

P. aeruginosa ATCC 15692 [2] = assay: Effect of rhDNase on STAMP killing in concentrated sputum; type: cell-based, Pseudomonas aeruginosa
Description: 3.4 Effect of rhDNase on STAMP activity in sputum. Recombinant human DNase, which is commonly used during treatment of CF to reduce sputum viscosity and promote airway clearing (Fuchs et al., 1994), was added to pooled, concentrated sputum samples to determine if G10KHc/PMSF and G10KHc-D activity could be improved during co-treatment under these conditions. To determine the effect of rhDNase (Genentech, San Francisco, Calif.) on STAMP killing ability, individual sputum samples were diluted 1:2 in 100 μg/mL rhDNase, briefly vortexed, and incubated at room temperature for 10 min. Treated samples were then pooled, followed by 1 mM PMSF addition, where appropriate, and incubation for 1 h. 25 μM G10KHc or G10KHc-D was then added with ˜5×10^6 cfu/mL ATCC 15692 and incubated 4 h. Survivors were then rescued and quantitated by plating as described above.

P. aeruginosa = assay: microbe, parasite or virus in culture; type: cell-based, Pseudomonas aeruginosa; details: for MIC: Pseudomonas aeruginosa
Description: 2.3 Antimicrobial Activities. The general antimicrobial activities of G10KHc, G10, and tobramycin against clinical isolates of P. aeruginosa were evaluated by minimum inhibitory concentration (MIC) assay as previously described (Eckert et al., 2006) and shown in Table 5. MICs are reported in μM, though for familiarity, 1 μM tobramycin=0.468 μg/mL. P. aeruginosa were grown to log phase and adjusted to ˜1×10^5 cfu/mL in Mueller-Hinton (MH) broth and added to 96-well plates. Two-fold serial dilutions of peptide were then added to bacteria and the plates incubated for 18-24 hours at 37° C. MIC was determined as the concentration of peptide present in the last clear well (no growth). […] In contrast to tobramycin, G10KHc was also effective against aminoglycoside and multiple-antibiotic resistant P. aeruginosa isolated from CF patients (AGR10, MR15). Additionally, as mucoid P. aeruginosa are often associated with reduced susceptibility to antimicrobial agents, we were encouraged to find that G10KHc was active against one such strain, PDO300.

P. aeruginosa ATCC 15692 [3] = assay: Time-kill (killing kinetics), P. aeruginosa in LB with 30% mouse serum; type: cell-based, Pseudomonas aeruginosa; details: 10 μM, 1 min to 2 h
Description: Time-Kill (killing kinetics) experiments were performed essentially as described previously (Eckert et al., 2006). Briefly, P. aeruginosa were grown to log phase and diluted to ˜1×10^5 cfu/mL (moderate density planktonic cultures) in LB with 30% mouse serum (MP Biomedicals) prior to the addition of 10 μM tobramycin, G10 or G10KHc to the cell suspensions. At each time point, 10 μL of the culture was removed and P. aeruginosa cells rescued by dilution in 500 μL LB and kept on ice until plating. Surviving cfu/mL were quantitated after plating on LB agar and incubating overnight at 37° C. under aerobic conditions.

P. aeruginosa ATCC 15692 [4] = assay: Time-kill against high-density planktonic P. aeruginosa; type: cell-based, Pseudomonas aeruginosa
Description: For evaluation of enhanced activity between G10KHc and tobramycin against high density planktonic cultures, ATCC 15692 were grown overnight were adjusted to ˜1×10^8 cfu/mL in ddH2O (pH 7.4) and exposed to 5 μM tobramycin, 5 μM G10KHc or a combination of both agents (a combination of 5 μM tobramycin (2.34 μg/mL) and 5 μM G10KHc or G10). 10 μL of the treated cultures was rescued by dilution after 24 h and the surviving cfu/mL plated on LB and counted after growth on LB agar.

P. aeruginosa biofilms = assay: Rotating-disk biofilm reactor, P. aeruginosa biofilm killing; type: cell-based, Pseudomonas aeruginosa; details: 100 μg/mL alone, 4 h or 24 h
Description: In this experiment, a rotating-disk biofilm reactor system was used for generating quantitative data on biofilm susceptibility to tobramycin, G10 and G10KHc. The system consisted of a reactor vessel containing 250 mL of diluted trypticase-soy broth (TSB) (1:100) medium. Reactors were inoculated with overnight cultures (1%, v/v). After static overnight growth in TSB, a flow of fresh medium was initiated (dilution rate, 0.7 h^−1). After 24 h in a flow of medium, the polycarbonate chips with attached biofilm bacteria were aseptically removed from the spinning disk and washed three times in ddH2O (pH 7.4) and incubated in 1 mL ddH2O. G10 (100 μg/mL), G10KHc (100 μg/mL), tobramycin (100 μg/mL), or a combination of the two was added as indicated. The chips were then incubated for 4 or 24 h in 24-well tissue culture plates (Falcon no. 353047; Becton Dickinson Labware, Franklin Lakes, N.J.). To estimate the number of viable P. aeruginosa remaining, the disks were placed in 1 mL PBS and the cells were dispersed using a tissue homogenizer (Brinkmann Instruments, Westbury, N.Y.) and the total cfu per chip was determined by serial dilution and plating on LB agar.

S. mutans biofilms = assay: Binding of fluorescently labeled genome-derived peptides to S. mutans biofilms; set-up: species or system Streptococcus mutans; details: fluorescent label
Description: The targeting peptide 1903 was obtained by scanning the genomic sequence of S. mutans UA140. The predicted open reading frames (ORFs) of the publicly-available genome were examined and those ORFs that encoded for proteins under 50 amino acids were noted and re-examined after scanning the entire genome. A number of peptides predicted to be encoded by these ORFs were selected, synthesized with fluorescent labels, tested for binding to S. mutans biofilms.

Question: For `O=S(=O)(F)Cc1ccccc1` [PMSF, phenylmethylsulphonylfluoride, reference compound], which “effect of inhibitor alone on P. aeruginosa viability” value (P. aeruginosa ATCC 15692 [1]; 1 mM) is on record?
Answer: only a small affect on P. aeruginosa viability

Question: `CC[C@@H](C)[C@@H](NC(=O)CNC(=O)[C@@H](CCCCN)NC(=O)[C@@H](CCCNC(=N)N)NC(=O)[C@H](NC(=O)[C@H](NC(=O)[C@@H](CCCNC(=N)N)NC(=O)[C@@H](CCCNC(=N)N)NC(=O)[C@@H](CC(C)C)NC(=O)[C@@H](CC(N)=O)NC(=O)[C@@H](CCCCN)NC(=O)[C@@H](CO)NC(=O)CNC(=O)CNC(=O)[C@@H](CO)NC(=O)CNC(=O)CNC(=O)[C@@H](Cc1c[nH]cn1)NC(=O)[C@@H](CCCCN)NC(=O)[C@@H](CCCNC(=N)N)NC(=O)[C@@H](Cc1c[nH]cn1)NC(=O)[C@@H](CCCCN)NC(=O)[C@@H](CCCNC(=N)N)NC(=O)[C@@H](Cc1c[nH]cn1)NC(=O)[C@@H](CCCCN)NC(=O)[C@@H](CCCNC(=N)N)NC(=O)[C@@H](Cc1c[nH]cn1)NC(=O)[C@@H](CCCCN)NC(=O)[C@H](N)CCCCN)[C@H](C)CC)[C@H](C)CC)C(=O)N[C@H](Cc1c[nH]cn1)C(=O)N[C@@H](C(=O)N[C@@H](C(=O)N[C@H](CCCCN)C(=O)N[C@H](CCCCN)C(=O)N[C@H](Cc1ccc(O)cc1)C(=O)NCC(=O)O)[C@H](C)CC)[C@H](C)CC` [Peptide G10KHc-D] (H-[dK][dK][dH][dR][dK][dH][dR][dK][dH][dR][dK][dH]GG[dS]GG[dS][dK][dN][dL][dR][dR][dI][dI][dR][dK]G[dI][dH][dI][dI][dK][dK][dY]G-OH; N-terminus and C-terminus assumed) was tested. Which “reduction of recovered P. aeruginosa compared to untreated samples” value (P. aeruginosa ATCC 15692 [1]; 25 μM, 4 h, no inhibitor) did it give?
Answer: 3-4 log10

Question: What about the “recovered cfu/mL as percent of untreated control” value (P. aeruginosa ATCC 15692 [2]; concentrated sputum not treated with rhDNase) of the same molecule?
Answer: ~30%

Question: How did the MIC range (P. aeruginosa) turn out when “KNLRRIIRKGIHIIKKYG [novispirin G10, KNLRRIIRKGIHIIKKYG]” was run?
Answer: 10 to 60 µM

Question: What about the “mean MIC” value (P. aeruginosa) of the same molecule?
Answer: 23.4 µM

Question: What about the “killing kinetics (in words)” value (P. aeruginosa ATCC 15692 [3]) of the same molecule?
Answer: ineffective

Question: Which results are given for `NC[C@H]1O[C@H](O[C@H]2[C@H](O)[C@@H](O[C@H]3O[C@H](CO)[C@@H](O)[C@H](N)[C@H]3O)[C@H](N)C[C@@H]2N)[C@H](N)C[C@@H]1O` [tobramycin]?
Answer: MIC (P. aeruginosa; ATCC9027, P. aeruginosa ATCC 9027): 2.12 µM (≈ 0.991 µg/mL); MIC (P. aeruginosa; ATCC10145, P. aeruginosa ATCC 10145): 1.75 µM (≈ 0.818 µg/mL); MIC (P. aeruginosa; ATCC15692, P. aeruginosa ATCC 15692): 3.05 µM (≈ 1.43 µg/mL); MIC (P. aeruginosa; ATCC27583, P. aeruginosa ATCC 27583): 1.75 µM (≈ 0.818 µg/mL); MIC (P. aeruginosa; P. aeruginosa AGR10 (aminoglycoside resistant, CF isolate)): 55 µM (≈ 25.7 µg/mL); MIC (P. aeruginosa; P. aeruginosa MR15 (multiple-antibiotic resistant, CF isolate)): 55 µM (≈ 25.7 µg/mL); MIC (P. aeruginosa; P. aeruginosa PAK): 2.12 µM (≈ 0.991 µg/mL); MIC (P. aeruginosa; P. aeruginosa S40): 0.4 µM (≈ 0.187 µg/mL); MIC (P. aeruginosa; P. aeruginosa S60): 0.4 µM (≈ 0.187 µg/mL); MIC (P. aeruginosa; P. aeruginosa S100): 3.5 µM (≈ 1.64 µg/mL); MIC (P. aeruginosa; PA14, P. aeruginosa PA14): 0.7 µM (≈ 0.327 µg/mL); MIC (P. aeruginosa; PAO1, P. aeruginosa PAO1): 2.5 µM (≈ 1.17 µg/mL); improvement in bactericidal effect over 5 μM G10 or G10KHc (P. aeruginosa ATCC 15692 [4]; 5 μM (2.34 μg/mL), 24 hours, high-density planktonic cells): 1-2 log10; surviving cfu/mL (P. aeruginosa ATCC 15692 [4]; 5 μM each agent, 24 h, 1×10^8 cfu/mL culture): 1×10^7 cfu/mL; killing effect against P. aeruginosa biofilms (P. aeruginosa biofilms): very limited killing effects

Question: For “NIFEYFLE (synthetic targeting peptide 1903)”, which “binding to S. mutans” value (S. mutans biofilms) is on record?
Answer: showed the binding activity to S. mutans

B1: rhDNase: Recombinant human DNase (Genentech), sputum mucolytic agent (protein, UniProt P24855 23-282, looked up)
Deoxyribonuclease-1: LKIAAFNIQTFGETKMSNATLVSYIVQILSRYDIALVQEVRDSHLTAVGKLLDNLNQDAPDTYHYVVSEPLGRNSYKERYLFVYRPDQVSAVDSYYYDDGCEPCGNDTFNREPAIVRFFSRFTEVREFAIVPLHAAPGDAVAEIDALYDVYLDVQEKWGLEDVMLMGDFNAGCSYVRPSQWSSIRLWTSPTFQWLIPDSADTTATPTHCAYDRIVVAGMLLRGAVVPDSALPFNFQAAYGLSDQLAQAISDHYPVEVMLK
Question: How did the “effect of rhDNase treatment alone on P. aeruginosa” value (P. aeruginosa ATCC 15692 [2]; 100 μg/mL rhDNase) turn out when B1 was run?
Answer: not affected
